What was measured:
[1] = test system: CASQ2 KO mice; experiment: In vivo telemetric ECG recording in CASQ2 KO mice; design: species or system mouse; conditions: 20 mg/kg IP; for number of mice, most severe ECG form: NSVT / number of mice, most severe ECG form: Normal (sinusal rhythm) / number of mice, most severe ECG form: SVT / number of mice, most severe ECG form: VPC: n=6
From the text: Telemetric ambulatory long-term ECG recordings, analogous to Holter monitoring in humans, were obtained with implantable transmitters. […] An implantable 3.5 grams wireless radiofrequency transmitter (DSI MM USA, device weight 3.8 grams) was aseptically inserted into a subcutaneous tissue pocket in the back as described in Katz, G., et al. Heart Rhythm 7, 1676-1682 (2010) and Kurtzwald-Josefson, E., et al. Heart Rhythm 11, 1471-1479 (2014)]. Animals were allowed to recover after surgery for at least 24 hours before any experiments. Baseline electrocardiograms (ECG) were obtained 15 minutes after IP injection of the appropriate vehicle (peanut oil or peanut oil supplemented with ethanol 1%). […] Telemetered ECG tracings were obtained in conscious mice at rest for one minute and during peak exercise (i.e. the first minute of recovery). In the treadmill exercise, mice were forced to exercise on a rodent treadmill; gradually increasing the speed up to a maximum of 15 m/minute. Ventricular tachycardia (VT) was defined as four or more consecutive ventricular beats. If this phenotype was consecutively observed for more than 15 seconds, it was defined as “sustained” ventricular tachycardia (SVT). Shorter VTs were characterized as “non-sustained” (NSVT). All other ventricular arrhythmias, such as premature beats, ventricular bigeminy, couplets and triplets were all defined as ventricular premature contractions (VPCs).
A heart telemetry device was implanted in WT, CASQ2-D307H KI and CASQ2 KO mice for continuous ECG recording at rest and during treadmill exercise. For each session, continuous ECG recording was performed with the same animals receiving first intraperitoneal (IP) injection of vehicle (peanut oil) and then the SK4 channel blocker.
The types of arrhythmic features were classified following their seriousness: sinusal rhythm (normal), ventricular premature contractions (VPC), non-sustained ventricular tachycardia (NSVT) and sustained ventricular tachycardia (SVT). For each mouse was considered the most severe form of arrhythmia recorded under ECG.

[2] = test system: normal hiPSC-CMs; experiment: Spontaneous APs in hiPS-CMs derived from normal individuals; type: cell-based, human; conditions: 5 μM TRAM-34 added to 3 μM isoproterenol
Method: (§1) In all experiments, the coverslips were perfused at 33° C. with an external solution containing (in mM): 140 NaCl, 4 KCl, 11 Glucose, 1.2 MgCl2, 1.8 CaCl2, 5.5 HEPES titrated to pH 7.4 with NaOH and adjusted at 320 mOsm with sucrose.
FIG. 4E (Left) presents representative traces of spontaneous APs recorded in hiPS-CM derived from a normal individual. […] FIG. 4E (Right) are bar graphs presenting data summary of pacing rate (normalized to Ctrl; one-way ANOVA **P=0.0071, n=14), DD slope (paired t-test, ***P<0.0001, n=14) and APD50 (one-way ANOVA *P=0.0243, n=18).

[3] = biological target: T1, SK4 K+ currents (Mus musculus, UniProt O89109); experiment: Voltage-ramp recording of TRAM-34-sensitive current in SAN cells from WT and CASQ2-D307H KI mice; type: cell-based; conditions: 5 μM TRAM-34 added to solution 1
T1 construct: representative traces of SAN cells isolated from WT and CASQ2-D307H KI mice; endogenous in cells; host or cells: primary sinoatrial node (SAN) cells dissociated from WT and CASQ2-D307H KI mouse hearts
From the text: Individual SAN cells were isolated from WT and CASQ2-D307H homozygous KI mice and recorded as described above, except that cells were held at −40 mV to improve their stability.
FIGS. 5A-B presents representative traces of SAN cells isolated from WT and CASQ2-D307H KI mice. […] The orange traces indicate that cells were exposed to blocker solution 1. […] The inward hump and substantial inward and outward currents disappeared upon exposure of cells to solution 1 (orange traces).

[4] = test system: SAN cells; experiment: Spontaneous APs / pacing rate of isolated SAN cells from WT mice (patch clamp); type: cell-based, mouse; conditions: 2 μM TRAM-34 added to 50 nM isoproterenol
Method: WT and CASQ2 D307H KI mice were anesthetized with isofluorane and sacrificed by cervical dislocation. The heart was rapidly removed and transferred into Tyrode solution containing heparin. […] The area was cleaned, cut into small strips and washed into a Low Calcium Solution, containing (in mM): 140 NaCl, 5.4 KCl, 0.5 MgCl2, 1.2 KH2PO4, 5 HEPES-NaOH, 50 taurine, 5.5 glucose (pH 6.9). The osmolarity was adjusted if needed to 315 mOsm.
The same solution, supplemented with 1 mg/ml albumin, 200 μM CaCl2, collagenase Type I (Worthington) or liberase TH (Roche), protease (Sigma) and elastase (Sigma) was used for enzymatic digestion as previously described [See, Mesirca, P., et al. Nat Commun 5, 4664 (2014)]. In this step, the tissue was gently resuspended with a polished Pasteur pipette in this solution for 9-13 minutes at 37° C. SAN samples were then washed three times in a modified “Kraftbrühe” solution, containing (in mM): 70 glutamic acid, 80 KOH, 20 KCl, 10 γ-Hydroxybutyric acid sodium salt, 10 KH2PO4, 10 HEPES-KOH, 10 taurine, 1 mg/ml albumin, 0.1 EGTA-KOH (pH 7.2). The same solution was used to re-suspend the single cells with a pipet by vigorous up and down, between 3 to 5 minutes at 37° C. Cells were then gradually exposed to increasing concentrations of calcium, following a “Ca^2+ readaptation” protocol [Mesirca et al., 2014, supra]. Experiments were performed the same day at 33° C.
as §1
The spontaneous automaticity of isolated SAN cells was recorded under perforated-patch conditions by adding 30 μM β-escin49 to the intracellular solution containing (in mM): 130 KCl, 10 NaCl, 10 HEPES, 0.2 EGTA-KOH, 2 MgATP, 6.6 Phosphocreatine, 0.05 cAMP and 1 μM free Ca^2+ (pH 7.2). To record SK4 K+ current, a voltage ramp protocol was applied. SAN and hiPS-CMs were held at −40 mV and −20 mV, respectively to substantially inactivate voltage-gated Na^+ and Ca^2+ currents. Cells were stepped from −90 mV to +60 mV for 150 ms. Then, a cocktail (solution 1) containing (in mM) 0.3 cadmium, 0.025 ZD-7288 and 0.01 E-4031 was applied extracellularly to inhibit residual L-type and T-type voltage-gated Ca2+ currents, If and the IKr currents, respectively. […] For voltage-clamp recording of SAN cells, the intracellular solution was the same to that described above for recording spontaneous automaticity.
The spontaneous electric activity of the cell was recorded in the current clamp configuration of the patch clamp technique before (black trace) and during (violet trace) exposure to 2 μM clotrimazole.
FIG. 5E (Left) presents representative traces of spontaneous APs recorded in single SAN cell from WT mice.

Clc1ccccc1C(c1ccccc1)(c1ccccc1)n1cccn1 [TRAM-34, 1-[(2-chlorophenyl)diphenylmethyl]-1H-pyrazole]
PR prolongation ([1]; KO mice at rest, n=7): 46%
heart rate decrease ([1]; KO mice at rest, n=7): 34±7%
sinus rate and PR interval ([1]; KO mice during treadmill exercise): significant sinus bradycardia and PR interval prolongation
number of mice, most severe ECG form: NSVT ([1]; KO at rest): 0
number of mice, most severe ECG form: Normal (sinusal rhythm) ([1]; KO at rest): 6
number of mice, most severe ECG form: SVT ([1]; KO at rest): 0
number of mice, most severe ECG form: VPC ([1]; KO at rest): 0
number of mice, most severe ECG form: NSVT ([1]; KO during exercise): 3
number of mice, most severe ECG form: Normal (sinusal rhythm) ([1]; KO during exercise): 3
number of mice, most severe ECG form: SVT ([1]; KO during exercise): 0
number of mice, most severe ECG form: VPC ([1]; KO during exercise): 0
cells with suppression of the pacing [2]: 10 out of 14
maximal diastolic potential (MDP) [2]: depolarized the maximal diastolic potential
slope of diastolic depolarization (DD) [2]: significantly decreased the slope of diastolic depolarization
TRAM-34-sensitive current density [3]: TRAM-34-sensitive currents with similar densities were isolated
DD slope [4]: markedly reduced the DD slope
MDP [4]: depolarized the MDP
beating rate [4]: decreased the beating rate
cells in which pacing activity stopped [4]: 3 out of 7

— patent US11166940B2, “Treatment of cardiac disorders by blocking SK4 potassium channel” (Ramot at Tel-Aviv University Ltd., priority 2016, dated 2021)
